# “Also recorded” adds a separate entry of the source.
# Test system: subjects with pulmonary hypertension (WHO group I PAH, WHO group III PH)
# Assay: Right heart catheterization: right heart/pulmonary artery hemodynamics, thermodilution cardiac output, PVR and SVR after inhaled NO and nebulized nitrite
# Assay type: in vivo, human
# Experimental: A total of 6 subjects with a confirmed diagnosis of pulmonary hypertension and meeting all inclusion/exclusion criteria were enrolled in the study which entailed a single right heart catheterization. The study population consisted of subjects with WHO group I PAH (n=3) and subjects with WHO group III PH (n=3) which received the dose escalation paradigm:
# During the study right heart/pulmonary artery hemodynamics were measured as well as noninvasive systemic blood pressure monitoring and simultaneous RV echocardiography. Subjects were tested for the changes in pulmonary vascular resistance (PVR) measured by right heart catheterization and using thermodilution cardiac output measurement at time zero, at times 15, 30 and 45 minutes after completion of each nebulization dose.
# Following right heart catheterization, the patient was stabilized for 20 minutes. Baseline blood collections and hemodynamic measurements were performed, followed by treatment with 40 ppm inhaled NO gas for […] with repeat hemodynamic measurements performed.
# After stopping inhaled NO gas, a single dose of sildenafil was given if patients were on background sildenafil therapy at previously prescribed doses. 45-minutes after sildenafil dose baseline hemodynamics were performed.
# Subjects were monitored carefully during and after the study treatment.
# The study was conducted at the 3rd FL Catheterization Laboratory at Presbyterian Hospital of the University of Pittsburgh Medical Center (UPMC). Baseline vasoreactivity was recorded after Inhaled NO at 40 ppm for […]. […] Subjects were instructed to breathe as calmly, and deeply as possible until no more mist was formed in the nebulizer chamber. Subjects were also instructed to hold their breath for approximately 10 seconds after inhalation to allow the study drug to reach deep into the lungs.
# [1] = Patient 5, nitrite 45 mg inhaled, 60 min
# [2] = Patient 5, nitrite 90 mg inhaled, 15 min
# [3] = Patient 5, nitrite 90 mg inhaled, 30 min
# [4] = Patient 5, nitrite 90 mg inhaled, 45 min
# [5] = Patient 5, nitrite 90 mg inhaled, 60 min
smiles,measurement,setting,value
"O=NO [nitrite, sodium nitrite]",PCWP,[1],7
same,PVR,[1],6.50
same,PVR/SVR,[1],0.49
same,RA,[1],3
same,RVD,[1],1
same,RVS,[1],76
same,SVR,[1],13.16
same,TPR,[1],8.07
same,mPAP,[1],36.01
same,CI,[2],2.77
same,CO,[2],4.91
same,PAD,[2],16
same,PAS,[2],76
same,PCWP,[2],2
same,PVR,[2],6.93
same,PVR/SVR,[2],0.50
same,RA,[2],1
same,SVR,[2],13.778
same,TPR,[2],7.33
same,mPAP,[2],36.01
same,CI,[3],2.81
same,CO,[3],4.97
same,PAD,[3],16
same,PAS,[3],69
same,PCWP,[3],3
same,PVR,[3],6.17
same,PVR/SVR,[3],0.47
same,RA,[3],1
same,SVR,[3],13.21
same,TPR,[3],6.78
same,mPAP,[3],33.67
same,CI,[4],2.86
same,CO,[4],5.07
same,PAD,[4],13
same,PAS,[4],70
same,PCWP,[4],3
same,PVR,[4],5.72
same,PVR/SVR,[4],0.47
same,RA,[4],1
same,SVR,[4],12.16
same,TPR,[4],6.31
same,mPAP,[4],32.01
same,CI,[5],3.24
same,CO,[5],5.73
same,PAD,[5],14
same,PAS,[5],74
same,PCWP,[5],3
same,PVR,[5],5.41
same,PVR/SVR,[5],0.44
same,RA,[5],1
same,SVR,[5],12.33
same,TPR,[5],5.93
same,mPAP,[5],34.01
same,CI,"Patient 6, nitrite 45, 15 min",2.9849
same,CO,"Patient 6, nitrite 45, 15 min",5.94
same,PAD,"Patient 6, nitrite 45, 15 min",22
same,PAS,"Patient 6, nitrite 45, 15 min",51
same,PCWP,"Patient 6, nitrite 45, 15 min",12
same,PVR,"Patient 6, nitrite 45, 15 min",3.3116
same,PVR/SVR,"Patient 6, nitrite 45, 15 min",0.2878
same,RA,"Patient 6, nitrite 45, 15 min",7
same,SVR,"Patient 6, nitrite 45, 15 min",11.505
same,TPR,"Patient 6, nitrite 45, 15 min",5.3318
same,mPAP,"Patient 6, nitrite 45, 15 min",31.671
same,CI,"Patient 6, nitrite 45, 30 min",2.8769
same,CO,"Patient 6, nitrite 45, 30 min",47.25
same,PAD,"Patient 6, nitrite 45, 30 min",20
same,PAS,"Patient 6, nitrite 45, 30 min",48
same,PCWP,"Patient 6, nitrite 45, 30 min",10
same,PVR,"Patient 6, nitrite 45, 30 min",3.3777
same,PVR/SVR,"Patient 6, nitrite 45, 30 min",0.2427
same,RA,"Patient 6, nitrite 45, 30 min",6
same,SVR,"Patient 6, nitrite 45, 30 min",13.917
same,TPR,"Patient 6, nitrite 45, 30 min",5.1244
same,mPAP,"Patient 6, nitrite 45, 30 min",29.337
same,CI,"Patient 6, nitrite 45, 45 min",3.0704
same,CO,"Patient 6, nitrite 45, 45 min",6.11
same,PAD,"Patient 6, nitrite 45, 45 min",23
same,PAS,"Patient 6, nitrite 45, 45 min",52
same,PCWP,"Patient 6, nitrite 45, 45 min",9
same,PVR,"Patient 6, nitrite 45, 45 min",3.8741
same,PVR/SVR,"Patient 6, nitrite 45, 45 min",0.2958
same,RA,"Patient 6, nitrite 45, 45 min",6
same,SVR,"Patient 6, nitrite 45, 45 min",13.095
same,TPR,"Patient 6, nitrite 45, 45 min",5.3471
same,mPAP,"Patient 6, nitrite 45, 45 min",32.671
same,CI,"Patient 6, nitrite 45, 60 min",2.9196
same,CO,"Patient 6, nitrite 45, 60 min",5.81
same,PAD,"Patient 6, nitrite 45, 60 min",28
same,PAS,"Patient 6, nitrite 45, 60 min",50
same,PCWP,"Patient 6, nitrite 45, 60 min",8
same,PVR,"Patient 6, nitrite 45, 60 min",4.7053
same,PVR/SVR,"Patient 6, nitrite 45, 60 min",0.3417
same,RA,"Patient 6, nitrite 45, 60 min",6
same,SVR,"Patient 6, nitrite 45, 60 min",13.771
same,TPR,"Patient 6, nitrite 45, 60 min",6.0822
same,mPAP,"Patient 6, nitrite 45, 60 min",35.338
same,CI,"Patient 6, nitrite 90, 15 min",3.3568
same,CO,"Patient 6, nitrite 90, 15 min",6.68
same,PAD,"Patient 6, nitrite 90, 15 min",24
same,PAS,"Patient 6, nitrite 90, 15 min",52
same,PCWP,"Patient 6, nitrite 90, 15 min",9
same,PVR,"Patient 6, nitrite 90, 15 min",3.6434
same,PVR/SVR,"Patient 6, nitrite 90, 15 min",0.3444
same,RA,"Patient 6, nitrite 90, 15 min",6
same,SVR,"Patient 6, nitrite 90, 15 min",10.58
same,TPR,"Patient 6, nitrite 90, 15 min",4.9907
same,mPAP,"Patient 6, nitrite 90, 15 min",33.338
same,CI,"Patient 6, nitrite 90, 30 min",3.6683
same,CO,"Patient 6, nitrite 90, 30 min",7.3
same,PAD,"Patient 6, nitrite 90, 30 min",20
same,PAS,"Patient 6, nitrite 90, 30 min",48
same,PCWP,"Patient 6, nitrite 90, 30 min",6
same,PVR,"Patient 6, nitrite 90, 30 min",3.1969
same,PVR/SVR,"Patient 6, nitrite 90, 30 min",0.3125
same,RA,"Patient 6, nitrite 90, 30 min",6
same,SVR,"Patient 6, nitrite 90, 30 min",10.23
same,TPR,"Patient 6, nitrite 90, 30 min",4.0188
same,mPAP,"Patient 6, nitrite 90, 30 min",29.337
same,CI,"Patient 6, nitrite 90, 45 min",3.7085
same,CO,"Patient 6, nitrite 90, 45 min",7.38
same,PAD,"Patient 6, nitrite 90, 45 min",24
same,PAS,"Patient 6, nitrite 90, 45 min",52
same,PCWP,"Patient 6, nitrite 90, 45 min",4
same,PVR,"Patient 6, nitrite 90, 45 min",3.9753
same,PVR/SVR,"Patient 6, nitrite 90, 45 min",0.4074
same,RA,"Patient 6, nitrite 90, 45 min",6
same,SVR,"Patient 6, nitrite 90, 45 min",9.7574
same,TPR,"Patient 6, nitrite 90, 45 min",4.5173
same,mPAP,"Patient 6, nitrite 90, 45 min",33.338
same,CI,"Patient 6, nitrite 90, 60 min",4.3417
same,CO,"Patient 6, nitrite 90, 60 min",8.64
same,PAD,"Patient 6, nitrite 90, 60 min",28
same,PAS,"Patient 6, nitrite 90, 60 min",55
same,PCWP,"Patient 6, nitrite 90, 60 min",4
same,PVR,"Patient 6, nitrite 90, 60 min",3.82
same,PVR/SVR,"Patient 6, nitrite 90, 60 min",0.4877
same,RA,"Patient 6, nitrite 90, 60 min",8
same,RVD,"Patient 6, nitrite 90, 60 min",8
same,RVS,"Patient 6, nitrite 90, 60 min",47
same,SVR,"Patient 6, nitrite 90, 60 min",7.8329
same,TPR,"Patient 6, nitrite 90, 60 min",4.2829
same,mPAP,"Patient 6, nitrite 90, 60 min",37.005
same,RA pressure (right atrial pressure),"patients with PAH (WHO Group 1 and Group 3; n=6), inhaled doses of 45 mg and 90 mg",dose-dependent reduction
same,PCWP (pulmonary capillary wedge pressure),"patients with PAH (WHO Group 1 and Group 3; n=6), inhaled doses of 45 mg and 90 mg, listed as inhaled nitrite",lowers; also recorded: dose-dependent reduction
same,response of patients non-responsive to inhaled NO,some patients of the study,responsive
